# In US10226474B2, “Methods and compositions for treatment of non-alcoholic steatohepatitis” (Temple University—Of The Commonwealth System of Higher …, priority 2017, dated 2019):
# Where two headings read alike, the source gives them in different places.
# Columns and labels:
# NASH patients [1] = conditions: oral dose of 150 mg, one year, cited from earlier work
# [2] = test system: DIAMOND™ mouse model of NASH; assay: Efficacy of fluasterone in the DIAMOND mouse model of NASH (Western Diet Sugar Water); type: in vivo; conditions: for mice progressed to measurable fibrosis by NASH CRN score: 24 week WDSW group 5/10
# Procedure: DIAMOND™ (Diet Induced Animal Model of Non-alcoholic fatty liver Disease) mouse model is a mouse model of NASH. This mouse model was used to assess the effect of fluasterone. The drug formulation (subcutaneous injectable formulation) contained fluasterone as an active pharmaceutical ingredient in a vehicle. The vehicle contained RO (reverse osmosis) water mixed with sterile saline solution and 5% Tween-80. The drug formulation was prepared as follows: micronized powder of fluasterone (submicron range particles of fluasterone) was suspended in the vehicle and vortexed to evenly suspend. Two doses of fluasterone were used and compared to vehicle controls and positive and negative natural history controls to determine the impact on weight gain, fatty liver, steatohepatitis, and the progression to fibrosis. The two different doses of fluasterone used were (i) a low dose (LD) fluasterone (5 mg fluasterone/kg body weight) for 8 weeks and (ii) a high dose (HD) fluasterone (20 mg fluasterone/kg body weight) for 8 weeks. Vehicle Control was sterile saline with 5% Tween-80. The other details are as follows: (1) Animal Species: DIAMOND™ Mice (Male C57BL/6J(B6)-129s1/SvImJ(S129)). (2) Positive Control and Treatment Groups' food and drinking water: (a) Food—Western Diet ENVIGO Harlan/Teklad 42% Adjusted Calories from Fat (TD. 88137), and (b) RO Water—Sugar Water—D-fructose Alfa Aesar #A17718 and D-glucose Water—Fisher Scientific #D19-212; Recipe=231 g Fructose+189 g Glucose+750 ml RO (reverse osmosis) water Diluted into 9 L RO Water. This diet is referred to herein as Western Diet Sugar Water (WDSW). (3) Negative Control Group's food and drinking water: (a) Normal Mouse Chow Diet—ENVIGO Harlan/Teklad Normal Rodent Chow (TD 7012 Teklad LM-485), and (b) RO water. This diet is referred to herein interchangeably as Normal Diet Normal Water (NDNW) and Normal Chow Normal Water (NCNW).
# Eight-two (82) DIAMOND™ mice were put on the special diet WDSW (high fat diet (Harlan/Teklad 42% fat) and sweetened water (D-Fructose and D-Glucose)) at time point 0 (t=0) (at eight weeks of age). Mice were weighed weekly. Of these, 10 mice were injected subcutaneously with fluasterone at concentration 5 mg/kg and 10 mice were injected subcutaneously with fluasterone at concentration 20 mg/kg, and 5 mice in a staggered group were injected with vehicle starting at 16 weeks on diet (t=16) until 24 weeks (t=24), as described in “Subcutaneous Injection.” For baseline controls, 8 male DIAMOND™ mice were placed on the WDSW at eight weeks of age and given no treatment; these were the positive natural history controls. A second group of 8 male DIAMOND™ mice were continued on the NCNW/NDNW at eight (8) weeks and these were the negative natural history control group. The mice were weighed weekly. At 16, 20, and 24 weeks on diet, fasting insulin was measured in serum from tail vein nick. HOMA-IR scores were calculated. 8 mice on WDSW and 8 mice NDNW were sacrificed at 16 weeks (t=16) on diet as baseline positive and negative controls. 8 mice on WDSW and 8 mice NDNW were sacrificed at 24 weeks (t=24). Carbon dioxide was used as an anesthetic and a cardiac puncture was performed for exsanguination. Cervical dislocation was performed as a secondary means of euthanasia.
# As discussed above, the drug formulation used in this experiment contained fluasterone as an active pharmaceutical ingredient in a vehicle. The vehicle contained RO water mixed with sterile saline solution and 5% Tween-80.
# Body Weights: Mice were weighed weekly and the weights determined the amount of test compound administered.
# Subcutaneous Injection: The mice received a subcutaneous injection 1× daily. In summary, mice were grasped at the scruff of the neck and a suitable place was selected for the injection. The injection site was moved daily to ensure limited distress to the animal. […]
# [3] = test system: TPA-stimulated epidermal hyperplasia in mouse skin; conditions: cited from earlier work
# mouse diabetic model = conditions: U.S. Pat. No. 8,431,555; cited from earlier work
# NASH patients [4] = conditions: obeticholic acid treatment; cited from earlier work
# [5] = test system: Nonalcoholic Steatohepatitis patients; conditions: PIVENS histologic response criteria; 0.025 considered statistically significant; cited from earlier work
compound,measurement,setting,value
CSc1ccc(C(=O)/C=C/c2cc(C)c(OC(C)(C)C(=O)O)c(C)c2)cc1 [GFT 505],improvement in histologically-assessed NASH vs. placebo,NASH patients [1]; all patients,failed to produce a statistically significant improvement
same,improvement in histologically-assessed NASH vs. placebo,NASH patients [1]; patients with the mildest form of NASH (NAS<3) excluded,statistically significant improvement vs. placebo
"C[C@]12CCCCC1=CC[C@@H]1[C@@H]2CC[C@]2(C)C(=O)[C@H](F)C[C@@H]12 [fluasterone, 16α-fluoro-5-androsten-17-one]",fasting blood ketones at necropsy,[2]; both low dose 5 mg/kg (P 0.01) and high dose 20 mg/kg (P 0.0005) vs 24 weeks WDSW,significantly lower
same,fasting blood glucose,"[2]; both low dose 5 mg/kg and high dose 20 mg/kg s.c., 8 weeks, vs 24 weeks WDSW, P 0.003 each (FIG. 3)",significantly improved
same,SAF Activity score,"[2]; both treatment groups vs 24 week positive controls, high dose P<0.039, low dose P<0.008 (FIG. 17)",improved the SAF scores
same,NAS score,"[2]; both treatment groups vs 24 week positive controls, high dose P<0.05, low dose P<0.001 (FIG. 18)",improved the NAS score
same,lobular inflammation,"[2]; both treatment groups vs 24 weeks WDSW, high dose P<0.01, low dose P<0.032 (FIG. 14)",significantly reduced inflammation
same,serum triglycerides,[2]; fluasterone-treated mice vs WDSW,no significant difference
same,total serum cholesterol,"[2]; fluasterone-treated mice vs WDSW positive controls, low dose P=0.0504",lower total serum cholesterol
same,liver weight vs WDSW positive control,"[2]; high dose 20 mg/kg s.c. 1x daily for 8 weeks (weeks 16-24 on WDSW), P=0.054",smaller livers compared to the WDSW 24 wk control group
same,fibrosis (NASH CRN),"[2]; high dose 20 mg/kg vs 24 week positive controls, P=0.15",not statistically less fibrotic although there was a trend
same,alkaline phosphatase (ALP),"[2]; high dose 20 mg/kg vs WDSW control, P=0.058",strong trend to improvement
same,mice that progressed to NASH,"[2]; high dose 20 mg/kg, 24 week WDSW control 10/10, baseline (16 weeks) 5/10",5/10
same,mice progressed to measurable fibrosis by NASH CRN score,[2]; high dose 20 mg/kg,2/10
same,perisinusoidal fibrosis,"[2]; high dose 20 mg/kg, P value of 0.052",almost statistically significant
same,fasting insulin (ELISA),"[2]; low and high dose groups vs WDSW positive control, baseline (16 weeks) and end of study (24 weeks)",not statistically significant between drug treated groups and WDSW positive control
same,HOMA IR,"[2]; low and high dose groups vs positive WDSW control, data not shown",comparable between the positive WDSW control and the drug treated groups
same,steatosis grade,[2]; low and high dose groups vs positive controls,neither treatment group had improved steatosis grade
same,necropsy body weight,"[2]; low dose 5 mg/kg and high dose 20 mg/kg s.c., 8 weeks, vs 24 week WDSW",comparable to the 24 week positive WDSW controls
same,liver weight vs WDSW positive control,"[2]; low dose 5 mg/kg s.c. 1x daily for 8 weeks (weeks 16-24 on WDSW), P=0.12","smaller livers than the WDSW positive control group, however the difference was not statistically significant"
same,AST,"[2]; low dose 5 mg/kg vs 24 week WDSW, P=0.10",statistically significant drop in AST
same,hepatocyte ballooning,"[2]; low dose 5 mg/kg vs 24 week positive control, P=0.026",statistically less ballooning
same,fibrosis (NASH CRN),"[2]; low dose 5 mg/kg vs 24 week positive controls, P=0.057",lower than the 24 week positive controls
same,alkaline phosphatase (ALP),"[2]; low dose 5 mg/kg vs WDSW control, P=0.01",significantly lower
same,steatosis percentage,"[2]; low dose 5 mg/kg vs positive controls, P=0.032",statistically significantly less steatosis percentage
same,mice that developed NASH,"[2]; low dose 5 mg/kg, 24 week WDSW control 10/10, baseline (16 weeks) 5/10",7/10
same,mice progressed to measurable fibrosis by NASH CRN score,[2]; low dose 5 mg/kg,1/10
same,perisinusoidal fibrosis,"[2]; low dose 5 mg/kg, P=0.002",significantly less perisinusoidal fibrosis
same,ALT,"[2]; treated mice vs 24 week positive control, P 0.11 (low dose) and 0.051 (high dose)",strong trend towards improved ALT (lower ALT)
same,effective dose abolishing TPA-stimulated epidermal hyperplasia,[3]; oral,at least 200 mg/kg
same,lowest effective dose abolishing TPA-stimulated epidermal hyperplasia,[3]; subcutaneous injection,2.5 mg/kg
same,hyperglycemia,mouse diabetic model,effective in reducing hyperglycemia
CC[C@H]1[C@@H](O)[C@@H]2[C@H](CC[C@]3(C)[C@@H]([C@H](C)CCC(=O)O)CC[C@@H]23)[C@@]2(C)CC[C@@H](O)C[C@@H]12 [obeticholic acid],insulin sensitivity,NASH patients [4],decrease in insulin sensitivity
same,plasma LDL and total cholesterol,NASH patients [4],significant increase
Vitamin E,histologic improvement compared with placebo,[5],significant histologic improvement compared with placebo
